Test results: patent US20110117166A1, “IMPLANTABLE BONE GRAFT MATERIALS” (AFFINERGY, INC., priority 2009, published 2011)
Ends that are not written are not given here.

Key:
BMP-2 = target: T1, BMP-2 (Homo sapiens, UniProt P12643); assay: ELISA of BMP-2 bound to biotinylated peptides immobilized on streptavidin plates; type: binding; conditions: FIG. 14A; BMP-2 200 nM, 20 nM and 2 nM, 45 minutes
T1 sequence (P12643 283-396): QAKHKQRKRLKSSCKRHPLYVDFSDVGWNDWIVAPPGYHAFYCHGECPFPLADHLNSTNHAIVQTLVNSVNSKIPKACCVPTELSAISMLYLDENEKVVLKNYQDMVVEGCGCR
Description: BMP binding peptides SEQ ID NOs:1-4 & 8-10 were identified as described in US Patent Application Publication No. US20060051395A1. Briefly, the peptides were identified by phage display using immobilized BMP-2 as a substrate for the phage library selections. Synthetic peptides SEQ ID NOs: 1-2 were determined to bind to BMP-2 with a relative EC50 value of 0.8 nM and 0.9 nM, respectively (data not shown). Separately, the relative binding affinity of peptides SEQ ID NOs: 1-2 for BMP-2 is shown in FIG. 14A (SEQ ID NO: 1 is denoted as P9 and SEQ ID NO: 2 is denoted as P10). Briefly, the results shown in FIG. 14A were generated by immobilizing biotinylated BMP binding peptides SEQ ID NOs:1 & 2 on streptavidin coated plates. Serial dilutions of 200 nM, 20 nM and 2 nM of BMP-2 were incubated with the immobilized BMP binding peptides for 45 minutes, washed, and bound BMP quantified using ELISA.

BMP-7 = target: T2, BMP-7 (Homo sapiens, UniProt P18075); assay: ELISA of BMP-7 bound to immobilized BMP binding peptides; conditions: FIG. 14B
T2 sequence (P18075 293-431): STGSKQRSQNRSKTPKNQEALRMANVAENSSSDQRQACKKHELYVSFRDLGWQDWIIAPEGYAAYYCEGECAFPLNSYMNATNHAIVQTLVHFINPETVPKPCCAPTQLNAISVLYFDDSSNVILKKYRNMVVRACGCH

C2C12 cells = assay: Alkaline phosphatase secretion by C2C12 cells in response to BMP-2 with BMP binding peptide in solution; type: cell-based; conditions: peptide 0-3500 nM, 3 days, FIG. 16
Description: In an experiment to test the biological activity of BMP-2 delivered by BMP binding peptide, alkaline phosphatase secreted by C2C12 cells in response to BMP-2 was measured in the presence and absence of BMP binding peptide in solution. C2C12 cells were incubated with BMP-2 (35 nM) and BMP binding peptide at a concentration ranging from 0-3500 nM. The C2C12 cells were incubated with the BMP-2 and BMP binding peptide for 3 days and the alkaline phosphatase assay was performed as described herein above.

rat calvarial defect = assay: Rat calvarial defect model of bone healing (μCT and histology); type: in vivo; conditions: conclusion from saline-hydrated groups
Description: The ability of each of the bone void filler collagen/TCP composites (unmodified and BMP binding peptide modified at 5-15 μmol peptide/g collagen described in Example 5) to speed bone healing was assessed in a rat calvarial defect model. A defect was introduced into male Sprague Dawley rats (n=8) as described previously (Poehling, et. al, J Periodontol, 2006, 77:1582-90). A full thickness circular defect, 6.8 mm in diameter, was made in the parietal bone, centered across the midline. The disc of bone was removed, and the void was filled with bone graft substitute material hydrated with or without BMA harvested from the tibia (saline was used for hydration without BMA). […] The calvaria were removed and analyzed by micro-computed tomography (μCT) to provide measurements of bone density (SCANCO MEDICAL; Wayne, Pa.). […] For each sample, 6 sections evenly distributed across the defect were scored by two independent observers, blind to the treatment groups. The slides were scored for osteogenic cellular activity, new bone area, and new bone maturity according to the following procedure. For osteogenic cellular activity, fibroblasts/loose connective tissue, immature cartilage progenitors, immature bone progenitors, giant cells, osteoclasts, osteoblasts, and osteocytes were counted and scored according to the following scale: 1=Rare; 2=Few; 3=Moderate; and 4=Dense. […]

Row | relative affinity for BMP-2 (BMP-2) | relative affinity for BMP-7 (BMP-7) | Substance | effect on BMP-2 biological activity (alkaline phosphatase secretion) (C2C12 cells; BMP-2 35 nM) | BMP-2 activity of the peptide on its own (alkaline phosphatase secretion) (C2C12 cells) | bioactivity of the peptide itself in bone formation (rat calvarial defect)
1 | high relative affinity | high relative affinity | GGGAWEAFSSLSGSRV-NH2 (C-terminus assumed) [SEQ ID NO: 1] | – | – | –
2 | high relative affinity | high relative affinity | GGALGFPLKGEVVEGWA-NH2 (C-terminus assumed) [SEQ ID NO: 2] | does not interfere with the biological activity of BMP-2 | does not have BMP-2 activity on its own | does not possess bioactivity itself
